The source of these data is ChEMBL document CHEMBL5338815 (J Med Chem, 2023).

Each structure is given as a SMILES string. Activity calls are given as the source filed them. The calls are words filed in the database; no cut-off is given here.

Data set [1] addresses T1, Histone-lysine N-methyltransferase EHMT2 (Homo sapiens, UniProt Q96KQ7).
T1 sequence (Q96KQ7 whole entry): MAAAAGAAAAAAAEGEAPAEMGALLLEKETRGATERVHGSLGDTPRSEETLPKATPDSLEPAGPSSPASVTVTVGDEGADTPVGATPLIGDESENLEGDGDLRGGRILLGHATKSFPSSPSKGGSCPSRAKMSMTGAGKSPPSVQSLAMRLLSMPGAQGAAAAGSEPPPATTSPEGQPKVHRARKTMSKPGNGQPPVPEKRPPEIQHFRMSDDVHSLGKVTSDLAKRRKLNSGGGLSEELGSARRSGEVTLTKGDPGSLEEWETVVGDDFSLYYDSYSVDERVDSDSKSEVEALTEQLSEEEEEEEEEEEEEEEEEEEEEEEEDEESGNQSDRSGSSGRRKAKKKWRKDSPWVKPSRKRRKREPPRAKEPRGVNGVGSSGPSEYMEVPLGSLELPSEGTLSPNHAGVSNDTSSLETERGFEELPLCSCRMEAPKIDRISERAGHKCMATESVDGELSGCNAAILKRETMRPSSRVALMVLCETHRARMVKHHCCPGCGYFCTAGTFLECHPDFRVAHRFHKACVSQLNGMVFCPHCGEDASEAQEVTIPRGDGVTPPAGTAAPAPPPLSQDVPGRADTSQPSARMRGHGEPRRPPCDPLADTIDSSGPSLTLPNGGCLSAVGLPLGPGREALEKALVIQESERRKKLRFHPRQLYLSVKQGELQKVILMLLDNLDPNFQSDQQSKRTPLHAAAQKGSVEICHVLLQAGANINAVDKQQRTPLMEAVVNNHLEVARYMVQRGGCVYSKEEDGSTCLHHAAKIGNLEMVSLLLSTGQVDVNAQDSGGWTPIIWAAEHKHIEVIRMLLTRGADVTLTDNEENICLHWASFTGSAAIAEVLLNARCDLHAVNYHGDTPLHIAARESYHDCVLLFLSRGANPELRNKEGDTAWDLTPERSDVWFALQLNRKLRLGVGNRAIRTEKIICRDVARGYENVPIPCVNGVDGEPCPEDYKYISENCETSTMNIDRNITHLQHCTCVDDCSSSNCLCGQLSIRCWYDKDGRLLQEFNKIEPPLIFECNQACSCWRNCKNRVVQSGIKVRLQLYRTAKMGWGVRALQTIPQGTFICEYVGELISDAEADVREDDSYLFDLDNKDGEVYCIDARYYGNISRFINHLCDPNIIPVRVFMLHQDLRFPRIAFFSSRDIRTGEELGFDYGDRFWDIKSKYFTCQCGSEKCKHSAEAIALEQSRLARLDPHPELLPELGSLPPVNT
As to the kind of experiment: Inhibition of G9a (unknown origin) by AlphaLISA assay. (In Alpha technology, singlet oxygen from a donor bead excites a nearby acceptor bead.)

The target of data set [2] is T2, Histone-lysine N-methyltransferase EHMT2 (Homo sapiens) (UniProt Q96KQ7).
T2 sequence (whole entry): T1 sequence (Q96KQ7 whole entry)
Description: Covalent inhibition of recombinant G9a (unknown origin) assessed as adduct formation intensity by mass spectrometric analysis. The settings on record: time <= 16.0 hrs, TDE = time-dependent effect.

Data set [3] concerns PANC-1. As to the kind of experiment: In vivo antitumor activity against human PANC-1 cells xenografted in Balb/c mouse model assessed as tumor growth inhibition at 2 mg/kg, ip treated for 22 days relative to control. Conditions: PANC-1, 528 h, time 22 day, read-out: TGI. Format: functional. In general terms: In xenograft studies the graft and the host belong to different species.

A short description of data set [4]: AUC (0 to t) in ICR mouse at 2 mg/kg, ip measured upto 24 hrs by LC-MS/MS analysis. Format: ADME, organism-based. Also on record: dose 2 mg/kg, time < 24 hrs, route ip. The settings on record: in vivo.
Data set [5] concerns MDA-MB-231. Description: Reduction in H3K9me2 level in human MDA-MB-231 cells at 10 uM incubated for 48 hrs followed replaced with fresh medium measured after 24 hrs by Western blot analysis. Format: functional, cell-based. (A western blot detects proteins with antibodies after separation by electrophoresis.)
The test system of data set [6] is PANC-1. Description: Antiproliferative activity against human PANC-1 cells assessed as cell viability measured after 24 hrs by CCK-8 assay. Format: functional, cell-based. The settings on record: PANC-1, 24 h.
Data set [7] deals with PANC-1. As to the kind of experiment: In vivo antitumor activity against human PANC-1 cells xenografted in Balb/c mouse model assessed as reduction in H3K9me2 level in tumor at 2 mg/kg, ip treated for 22 days relative to control. Format: functional, organism-based. The settings on record: time 22.0 day.
Data set [8] is described as follows: Toxicity in Balb/c mouse xenografted with human PANC-1 cells assessed as body weight change at 2 mg/kg, ip treated for 22 days relative to control. It is filed as organism-based. Conditions: in vivo, 528 h, time 22 day.
Data set [9] in a line: Metabolic stability in mouse liver microsomes assessed as half life at 0.1 uM measured upto 60 mins by LC-MS/MS analysis. It is filed as ADME, Microsome.
Data set [10] can be described thus: MRT in ICR mouse at 2 mg/kg, ip measured upto 24 hrs by LC-MS/MS analysis. Conditions: in vivo. Format: ADME, organism-based.
Data set [11] deals with MDA-MB-231. As to the kind of experiment: Reduction in H3K9me2 level in human MDA-MB-231 cells at 10 uM incubated for 48 hrs followed replaced with fresh medium measured after 48 hrs by Western blot analysis. Format: functional, cell-based.
The target of data set [12] is T2, Histone-lysine N-methyltransferase EHMT2 (Homo sapiens). Description: Covalent inhibition of recombinant G9a (unknown origin) assessed as adduct formation intensity by measuring mass after 12 hrs by mass spectrometric analysis.
The nature of data set [13]: Cmax in ICR mouse at 2 mg/kg, ip measured upto 24 hrs by LC-MS/MS analysis. It is filed as ADME, organism-based. The arrangement: time < 24 hrs, dose 2 mg/kg, route ip. The settings on record: in vivo.
Data set [14] addresses T2, Histone-lysine N-methyltransferase EHMT2 (Homo sapiens). As to the kind of experiment: Binding affinity to G9a in human MDA-MB-231 cells assessed as protein stabilization at 37 to 41.7 degC at 10 uM incubated for 15 hrs in presence of G9a antibody by CETSA. Format: cell-based.

What is called IC50 is the concentration at which inhibition is half-maximal. As usually defined, the AUC(0-t) is the area under the concentration-time curve up to a stated or last time point. Lower therefore signals less exposure. By half-life is commonly meant the time in which the quantity being followed falls by half. What is called MRT is a mean duration of stay, worked out from the concentration-time curve. A word on the Cmax: it is the peak of the concentration-time curve. Turning to `C=CC(=O)N(C)c1nc(NC2CCN(C)CC2)c2cc(OC)c(OCCCN3CCCC3)cc2n1`, the IC50 in data set [1] worked out at 8.5 nM; in data set [6], 2680 nM. The inhibition result in [2] is “Tde”. Further, the inhibition in vivo at 2 mg/kg in data set [3] is 52.2%. For the same compound, the AUC(0-t) at 24 h in data set [4] was 208 ng·h/mL. Also, the inhibition entry in [5] and in data set [7] was “Active” each time. Also, the Activity entry in [8] was “Non-Toxic”; in data set [12], 60700 Da. For the same compound, the half-life at 0.1 µM in [9] was 71.2 min. The same compound had an MRT in data set [10] of 36.6 min. In addition, in [11], the inhibition entry was “inactive”. Besides, the concentration in [13] peaked (Cmax) at 316 ng/mL. For the same compound, the outcome in data set [14] was Active.
